Entries after “also recorded” stand apart in the source; their conditions may differ.

One experiment relates to α-SMA. Put plainly: Expression level of α-SMA in fatty acid-treated LX-2 cells (Western blotting). Particulars: fatty acid mixture + rosoxacin 50 μM (24th, 48th h), 900 μM (72nd h), p<0.0001, FIG. 8. It counts as cell-based, human.
In experiment [1] the test system is male C57BL/6JNarl mice. Put plainly: High-fat diet induced NAFLD in mice, oral rosoxacin. It counts as in vivo. The settings on record: for lipid droplets accumulated in liver (hematoxylin-eosin histology) / aspartate transaminase (AST) content in serum / alanine transaminase (ALT) content in serum: HFD; for lipid droplets accumulated in liver (hematoxylin-eosin histology): FIG. 5; for aspartate transaminase (AST) content in serum: FIG. 6; for alanine transaminase (ALT) content in serum: FIG. 7; for liver weight: FIG. 4. The source says:
The male C57BL/6JNarl mice were randomly divided into a normal control group, a pathological control group, and two experimental groups (i.e., experimental groups 1 and 2) (n=5 per group). The mice in the normal control group were fed ad libitum for a total of 14 weeks with a normal chow diet (NCD) (Altromin, Cat. No. 1320). In addition, the mice in each of the pathological control group and the experimental groups 1 and 2 were fed ad libitum for a total of 14 weeks with a high-fat diet (HFD) (Research Diets, Cat. No. D12492) containing 60% fat, so as to induce NAFLD.
On the 5th week after feeding the diet to the mice in each group as described in section B of this example, the mice in each of the experimental groups 1 and 2 were also fed, via oral gavage, with the rosoxacin solution prepared in section A of this example, at a respective dose of 10 mg/kg per mouse and 50 mg/kg per mouse. In addition, the mice in each of the normal control group and the pathological control group were fed, via oral gavage, with PBS at a volume of 150 μL. Each mouse was fed once every two days until the end of the 14th week after feeding with the diets.
Prior to the feeding of the diets as described in section B of this example (i.e., at the 0th week), on the 1st day of each week after starting the feeding of the diets, and at the end of the 14th week after starting the feeding of the diets, the body weight of each mouse was measured.
After completion of the determination of body weight at the end of the 14th week, the mice in each group were sacrificed using CO2, and blood samples were collected via cardiac puncture at the same time. Each of the blood samples was then subjected to centrifugation at 4° C. under a speed of 1200 g for […], so as to obtain a serum sample. In addition, liver tissue was obtained from each mouse carcass, and then was subjected to weight measurement. The data thus obtained were analyzed according to the procedures as described in section 1 of “General Procedures”.
The liver tissue of each mouse obtained in section D of this example was subjected to a fixation treatment with a 10% paraformaldehyde solution for 24 hours. Next, the fixed liver tissue was subjected to a dehydration treatment performed in sequence using ethanol solutions having concentrations of […], respectively. After that, the dehydrated liver tissue was washed with xylene, and was then embedded with paraffin, followed by slicing, so as to obtain a tissue section having a thickness of 5 μm.
After dewaxing, the tissue section was subjected to hematoxylin-eosin staining using a staining protocol well-known to those skilled in the art, and was then observed under an optical microscope (Leica, Cat. No. DM2500) at a magnification of 20×.
The serum sample of each mouse obtained in section D of this example was subjected to determination of liver function indexes (i.e., aspartate transaminase (AST) and alanine transaminase (ALT)) which was entrusted to Bio-Cando Co., Ltd., so as to assess the degree of liver injury in the mouse. The data thus obtained were analyzed according to the procedures as described in section 1 of “General Procedures”.

In experiment [2] the test system is male C57BL/6JNarl mice. The experiment can be described thus: CDAA diet induced NASH / liver fibrosis in mice, oral rosoxacin. It counts as in vivo. Particulars: 50 mg/kg oral gavage once every two days, week 3 to 6 of CDAA diet. An excerpt: The male C57BL/6JNarl mice were randomly divided into a normal control group, a pathological control group, and an experimental group (n=6 per group). The mice in the normal control group were fed ad libitum for a total of 6 weeks with a normal chow diet (NCD) (Altromin, Cat. No. 1320). In addition, the mice in each of the pathological control group and the experimental group were fed ad libitum for a total of 6 weeks with a choline deficient L-amino acid defined diet (CDAA) (Research Diets, Cat. No. A21060401) containing 45% fat and 0.2% cholesterol, so as to induce NASH.
On the 3rd week after feeding the diet to the mice in each group as described in the preceding paragraph, the mice in the experimental group were also fed, via oral gavage, with the rosoxacin solution prepared in section A of Example 2, at a dose of 50 mg/kg per mouse. In addition, the mice in each of the normal control group and the pathological control group were fed, via oral gavage, with PBS at a volume of 150 μL. Each mouse was fed once every two days until the end of the 6th week after feeding with the diets. […]
Next, ImageJ Imaging software was used for quantitatively calculating the percentage (%) of Sirius Red-stained area. […] The data thus obtained were analyzed according to the procedures as described in section 1 of “General Procedures”.

Experiment [3] concerns HepG2 cells. The experiment can be described thus: Relative amount of accumulated lipid droplets in HepG2 cells, different quinolone antibiotics (BODIPY). In kind it is cell-based, human. The settings on record: fatty acid mixture + antibiotic 50 μM (24th, 48th h), 900 μM (72nd h); FIG. 11. The method, then: The HepG2 cells prepared in section 1 of “General Experimental Materials” were divided into 7 groups, including a pathological control group, an experimental group, and five comparative groups (i.e., comparative groups 1 to 5). Each group of the HepG2 cells was incubated in a respective well of a 24-well culture plate containing 1 mL of DMEM medium at 1.2×10^5 cells/well, followed by cultivation in an incubator with culture conditions set at 37° C., 5% CO2.
On the 24th and 48th hours after cultivation, the culture medium in each well was removed, and the cells of the respective group were added with the respective testing agent as shown in Table 5 below. […]
The cell suspension of the respective one of the pathological control group, the experimental group, and the comparative groups 1 to 5 obtained in section B of this example was added with 50 μL of BODIPY solution (DMEM containing 13 μg/mL BODIPY 493/504 (Sigma-Aldrich, Cat No. 790389)), followed by placing on ice for 30 minutes in the dark to allow neutral lipid staining to be carried out. […] After that, the supernatant was poured off, and the pellet was subjected to a fixation treatment with 4% paraformaldehyde (in PBS) for 15 minutes, followed by determination of fluorescence intensity using a flow cytometer (BD Biosciences, Cat. No. BD Accuri C6).
The BODIPY was excited by an argon-ion laser (488 nm) to generate fluorescence. […]

Experiment [4] has as its system HepG2 cells. The experiment can be described thus: Amount of accumulated lipid droplets in fatty acid-treated HepG2 cells (BODIPY, flow cytometry). The settings on record: FIG. 2. It counts as cell-based, human.
Procedure: The HepG2 cells prepared in section 1 of “General Experimental Materials” were divided into 6 groups, including a normal control group, two comparative groups (i.e., comparative groups 1 and 2), a pathological control group, and two experimental groups (i.e., experimental groups 1 and 2). Each group of the HepG2 cells was incubated in a respective well of a 24-well culture plate containing 1 mL of DMEM medium at 1.2×10^5 cells/well, followed by cultivation in an incubator with culture conditions set at 37° C., 5% CO2. On the 24th and 48th hours after cultivation, the culture medium in each well was removed, and the cells of the respective group were added with the respective testing agent as shown in Table 2 below. […] After that, the supernatant was poured off, and the pellet was subjected to a fixation treatment with 4% paraformaldehyde (in PBS) for 15 minutes, followed by determining the fluorescence intensity using a flow cytometer (BD Biosciences, Cat. No. BD Accuri C6). The BODIPY was excited by an argon-ion laser (488 nm) to generate fluorescence. The fluorescence intensity was then measured at a wavelength of 504 nm, and 10,000 cells were analyzed each time. The data thus obtained were analyzed using BD Accuri C6 software, so as to obtain the mean fluorescence intensity (MFI) value in each group. […]
Where [5] appears, read: experimental group 1: 10 mg/kg oral gavage once every two days.
The mark [6] stands for this setting: experimental group 2: 50 mg/kg oral gavage once every two days.

Procedure for α-SMA: Each group of the LX-2 cells was incubated in a respective well of a 24-well culture plate containing 1 mL of DMEM medium at 1.2×10^5 cells/well, followed by cultivation in an incubator with culture conditions set at 37° C., 5% CO2. On the 24th and 48 th hours after cultivation, the culture medium in each well was removed, and the cells of the respective group were added with the respective testing agent as shown in Table 3 below. In addition, on the 72nd hour after cultivation, the cell culture of the respective group was added with the respective testing agent as shown in Table 3. On the 96th hour after cultivation, the liquid in each well was removed, and the cells were washed with PBS, followed by adding 500 μL of trypsin-EDTA to detach the cells from the bottom of the plate. Subsequently, 1 mL fresh DMEM medium was added to each well to neutralize trypsin activity, followed by centrifugation at 4° C. under a speed of 300 g for 3 minutes, so as to form a supernatant and a pellet. After that, the supernatant was poured off, and the resultant cell pellet was collected. […] The protein concentration in the total protein sample was determined using bicinchoninic acid assay kit (Thermo, Cat. No. 23227) in accordance with the manufacturer's instructions. […] Subsequently, ImageJ Imaging Software was used for semi-quantitatively calculating the corresponding protein expression level. […]

For the molecule `CCn1cc(C(=O)O)c(=O)c2ccc(-c3ccncc3)cc21` [rosoxacin, 1-ethyl-4-oxo-7-(4-pyridyl)-1,4-dihydroquinoline-3-carboxylic acid], the “expression level of α-SMA (normalized to β-actin)” value in the experiment with α-SMA was “significantly lower than that determined in the pathological control group; also recorded: even lower than that determined in the normal control group”. For the same molecule, the “lipid droplets accumulated in liver (hematoxylin-eosin histology)” value with male C57BL/6JNarl mice [1] (setting [5]) is given as “significantly lower than those in the pathological control group”; with male C57BL/6JNarl mice [1] (setting [6]), “significantly lower than those in the pathological control group”; in the experiment on male C57BL/6JNarl mice [2] (FIG. 9), “significantly less than those in the pathological control group”. Moreover, the “aspartate transaminase (AST) content in serum” value in the experiment with male C57BL/6JNarl mice [1] (setting [5]) and with male C57BL/6JNarl mice [1] (setting [6]) was “apparently or significantly lower than those determined in the pathological control group” each time. Also, the “alanine transaminase (ALT) content in serum” value with male C57BL/6JNarl mice [1] (setting [5]) is given as “apparently or significantly lower than those determined in the pathological control group”; in the experiment with male C57BL/6JNarl mice [1] (experimental group 2: 50 mg/kg oral gavage once every two days, p<0.05), “significantly lower than that determined in the pathological control group”. Further, the liver weight entry in the experiment on male C57BL/6JNarl mice [1] (experimental group 1: 10 mg/kg oral gavage once every two days, week 5 to 14 of HFD, 10 mg/kg) is listed as “apparently or significantly lower than that determined in the pathological control group”; with male C57BL/6JNarl mice [1] (experimental group 2: 50 mg/kg oral gavage once every two days, week 5 to 14 of HFD, 50 mg/kg), “apparently or significantly lower than that determined in the pathological control group; also recorded: even lower than that of the normal control group”. Also, the body weight entry in the experiment with male C57BL/6JNarl mice [1] (experimental group 2: 50 mg/kg oral gavage once every two days, week 5 to 14 of HFD, p<0.05, FIG. 3) is “significantly lower than that determined in the pathological control group”. Moreover, the “percentage of Sirius Red-stained area” value in the experiment with male C57BL/6JNarl mice [2] (p<0.0001, FIG. 10) is “significantly lower than that determined in the pathological control group”. The “relative percentage of MFI value (pathological control group = 100%)” value in the experiment on HepG2 cells [3] was “significantly lower than that determined in the pathological control group”. Besides, the “mean fluorescence intensity (MFI) value (accumulated lipid droplets)” value with HepG2 cells [4] (experimental group 1: fatty acid mixture + rosoxacin 10 μM (24th, 48th h), 180 μM (72nd h)) was “lower than that of the pathological control group”; in the experiment on HepG2 cells [4] (experimental group 2: fatty acid mixture + rosoxacin 50 μM (24th, 48th h), 900 μM (72nd h), p<0.001) it was “significantly lower than that determined in the pathological control group”.

(Values after patent publication US11998541B2, “Method for alleviating chronic liver disease using Rosoxacin” (National Yang Ming Chiao Tung University, priority 2022, dated 2024).)
